According to patent US10246429B2, “Vinyl fluoride cyclopropyl fused thiazin-2-amine compounds as beta-secretase inhibitors and methods of use” (AMGEN INC., priority 2015, dated 2019):

Tests used:
BACE2 = BACE2 (Homo sapiens (Human), UniProt Q9Y5Z0); experiment: In vitro enzymatic BACE2 FRET assay; format: biochemical; conditions: read-out: IC50 IP (μM) BACE2 Enzyme
Source text: In Vitro Enzymatic BACE1 and BACE2 FRET (Fluorescence Resonance Energy Transfer) Assays (Enzyme Assay Data in Table 1)

Cathepsin D (CatD) = Cathepsin D (CatD) (Homo sapiens (Human), UniProt P07339); experiment: CatD assay; format: biochemical; conditions: read-out: IC50 IP (μM) CatD
Chain of Cathepsin D (CatD) (P07339 65-412, species assumed): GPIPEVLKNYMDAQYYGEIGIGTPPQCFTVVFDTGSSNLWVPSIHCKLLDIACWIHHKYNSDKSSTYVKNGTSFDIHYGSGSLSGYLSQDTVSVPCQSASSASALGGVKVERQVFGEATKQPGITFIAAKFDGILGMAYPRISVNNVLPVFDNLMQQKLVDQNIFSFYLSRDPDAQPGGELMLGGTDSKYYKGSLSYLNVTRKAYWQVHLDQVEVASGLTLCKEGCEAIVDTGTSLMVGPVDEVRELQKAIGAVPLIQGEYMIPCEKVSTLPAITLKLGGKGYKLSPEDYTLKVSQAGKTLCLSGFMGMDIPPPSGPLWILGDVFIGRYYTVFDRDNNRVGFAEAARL

Chain of BACE2 (Q9Y5Z0 63-518): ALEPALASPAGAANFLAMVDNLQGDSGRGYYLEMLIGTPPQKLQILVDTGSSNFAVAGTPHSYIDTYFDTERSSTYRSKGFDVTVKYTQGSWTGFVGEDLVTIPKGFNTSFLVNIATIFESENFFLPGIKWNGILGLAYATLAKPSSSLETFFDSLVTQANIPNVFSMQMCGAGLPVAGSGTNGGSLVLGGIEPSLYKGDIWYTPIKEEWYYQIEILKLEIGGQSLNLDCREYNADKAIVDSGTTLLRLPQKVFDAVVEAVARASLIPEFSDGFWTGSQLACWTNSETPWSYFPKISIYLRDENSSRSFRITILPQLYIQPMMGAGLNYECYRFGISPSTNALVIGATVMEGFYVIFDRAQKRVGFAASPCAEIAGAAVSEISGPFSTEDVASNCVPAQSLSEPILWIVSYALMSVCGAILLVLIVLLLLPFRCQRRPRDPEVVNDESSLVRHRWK

SMILES | IC50 (BACE2) [µM] | IC50 (Cathepsin D (CatD)) [µM]
C[C@@H]1COCCN1C(=O)[C@]12C[C@H]1[C@@](C)(c1cc(/C=C(\F)c3ccc(C#N)cn3)cnc1F)N=C(N)S2 [Example 290, 6-((Z)-2-(5-((1S,5S,6S)-3-amino-5-methyl-1-((R)-3-methylmorpholine-4-carbonyl)-2-thia-4-azabicyclo[4.1.0]hept-3-en-5-yl)-6-fluoropyridin-3-yl)-1-fluorovinyl)nicotinonitrile] | 0.229 | 400
C[C@]1(c2cc(/C=C(\F)c3ccc(C#N)cn3)cnc2F)N=C(N)S[C@@]2(C(=O)N3CCC(F)(F)CC3)C[C@H]21 [Example 260, 6-((Z)-2-(5-((1S,5S,6S)-3-amino-1-(4,4-difluoropiperidine-1-carbonyl)-5-methyl-2-thia-4-azabicyclo[4.1.0]hept-3-en-5-yl)-6-fluoropyridin-3-yl)-1-fluorovinyl)nicotinonitrile] | 0.115 | 84.1
CC1CCCN1C(=O)[C@]12C[C@H]1[C@@](C)(c1cc(/C=C(\F)c3ccc(C#N)cn3)ccc1F)N=C(N)S2 (stereo partly drawn) [Example 138, 6-((Z)-2-(3-((1S,5S,6S)-3-amino-5-methyl-1-(2-methylpyrrolidine-1-carbonyl)-2-thia-4-azabicyclo[4.1.0]hept-3-en-5-yl)-4-fluorophenyl)-1-fluorovinyl)nicotinonitrile] | 0.0924 | 70.9
C[C@]1(c2cc(/C=C(\F)c3ccc(C#N)cn3)ccc2F)N=C(N)S[C@@]2(C(=O)NC3CC3)C[C@H]21 [Example 121, (1S,5S,6S)-3-amino-5-(5-((Z)-2-(5-cyanopyridin-2-yl)-2-fluorovinyl)-2-fluorophenyl)-N-cyclopropyl-5-methyl-2-thia-4-azabicyclo[4.1.0]hept-3-ene-1-carboxamide] | 0.164 | 52.9
COC(=O)[C@]12C[C@H]1[C@@](C)(c1cc(/C=C(\F)c3ccc(Cl)cn3)ccc1F)N=C(N)S2 [Example 111, (1S,5S,6S)-methyl 3-amino-5-(5-((Z)-2-(5-chloropyridin-2-yl)-2-fluorovinyl)-2-fluorophenyl)-5-methyl-2-thia-4-azabicyclo[4.1.0]hept-3-ene-1-carboxylate] | 0.102 | 734
Cc1nnc(COc2cnc(/C(F)=C/c3ccc(F)c([C@@]4(C)N=C(N)S[C@@]5(S(C)(=O)=O)C[C@H]54)c3)cn2)o1 [Example 228, (1R,5S,6S)-5-(2-fluoro-5-((Z)-2-fluoro-2-(5-((5-methyl-1,3,4-oxadiazol-2-yl)methoxy)pyrazin-2-yl)vinyl)phenyl)-5-methyl-1-(methylsulfonyl)-2-thia-4-azabicyclo[4.1.0]hept-3-en-3-amine] | 0.292 | 46.3
CC1CC(C)CN(C(=O)[C@]23C[C@H]2[C@@](C)(c2cc(/C=C(\F)c4ccc(C#N)cn4)ccc2F)N=C(N)S3)C1 (stereo partly drawn) [Example 137, 6-((Z)-2-(3-((1S,5S,6S)-3-amino-1-(3,5-dimethylpiperidine-1-carbonyl)-5-methyl-2-thia-4-azabicyclo[4.1.0]hept-3-en-5-yl)-4-fluorophenyl)-1-fluorovinyl)nicotinonitrile] | 0.21 | 43.2
C[C@]1(c2cc(/C=C(\F)c3ccc(C#N)cn3)ccc2F)N=C(N)S[C@@]2(C(=O)N3CCC(C(F)(F)F)CC3)C[C@H]21 [Example 139, 6-((Z)-2-(3-((1S,5S,6S)-3-amino-5-methyl-1-(4-(trifluoromethyl)piperidine-1-carbonyl)-2-thia-4-azabicyclo[4.1.0]hept-3-en-5-yl)-4-fluorophenyl)-1-fluorovinyl)nicotinonitrile] | 0.00257 | 81.5
CN(C)C(=O)[C@]12C[C@H]1[C@@](C)(c1cc(/C=C(\F)c3cnc(OCC(F)(F)F)cn3)cnc1F)N=C(N)S2 [Example 282, (1S,5S,6S)-3-amino-5-(2-fluoro-5-((Z)-2-fluoro-2-(5-(2,2,2-trifluoroethoxy)pyrazin-2-yl)vinyl)pyridin-3-yl)-N,N,5-trimethyl-2-thia-4-azabicyclo[4.1.0]hept-3-ene-1-carboxamide] | 0.125 | 287
COC[C@@]12SC(N)=N[C@](C)(c3cc(/C=C(\F)c4ccc(C#N)cn4)ccc3F)[C@@H]1C2(F)F [Example 258, 6-((Z)-2-(3-((1S,5S,6R)-3-amino-7,7-difluoro-1-(methoxymethyl)-5-methyl-2-thia-4-azabicyclo[4.1.0]hept-3-en-5-yl)-4-fluorophenyl)-1-fluorovinyl)nicotinonitrile] | 0.118 | 90.7
C[C@]1(c2cc(/C=C(\F)c3ccc(C#N)cn3)cnc2F)N=C(N)S[C@@]2(C(=O)N3CCOCC3)C[C@H]21 [Example 183, 6-((Z)-2-(5-((1S,5S,6S)-3-amino-5-methyl-1-(morpholine-4-carbonyl)-2-thia-4-azabicyclo[4.1.0]hept-3-en-5-yl)-6-fluoropyridin-3-yl)-1-fluorovinyl)nicotinonitrile] | 0.241 | 2140
CC(Oc1cnc(/C(F)=C/c2ccc(F)c([C@@]3(C)N=C(N)S[C@@]4(C(=O)N(C)C)C[C@H]43)c2)cn1)c1ncco1 (stereo partly drawn) [Example 156, (1S,5S,6S)-3-amino-5-(2-fluoro-5-((Z)-2-fluoro-2-(5-(-1-(oxazol-2-yl)ethoxy)pyrazin-2-yl)vinyl)phenyl)-N,N,5-trimethyl-2-thia-4-azabicyclo[4.1.0]hept-3-ene-1-carboxamide] | 0.135 | 93.8
C[C@@H]1CC[C@@H](C)N1C(=O)[C@]12C[C@H]1[C@@](C)(c1cc(/C=C(\F)c3ccc(C#N)cn3)ccc1F)N=C(N)S2 [Example 133, 6-((Z)-2-(3-((1S,5S,6S)-3-amino-1-((2R,5R)-2,5-dimethylpyrrolidine-1-carbonyl)-5-methyl-2-thia-4-azabicyclo[4.1.0]hept-3-en-5-yl)-4-fluorophenyl)-1-fluorovinyl)nicotinonitrile] | 0.099 | 146
CC1CCCN(C(=O)[C@]23C[C@H]2[C@@](C)(c2cc(/C=C(\F)c4ccc(C#N)cn4)ccc2F)N=C(N)S3)C1 (stereo partly drawn) [Example 145, 6-((Z)-2-(3-((1S,5S,6S)-3-amino-5-methyl-1-(3-methylpiperidine-1-carbonyl)-2-thia-4-azabicyclo[4.1.0]hept-3-en-5-yl)-4-fluorophenyl)-1-fluorovinyl)nicotinonitrile] | 0.0174 | 42.6
COC[C@@H]1CCCN1C(=O)[C@]12C[C@H]1[C@@](C)(c1cc(/C=C(\F)c3ccc(Cl)cn3)ccc1F)N=C(N)S2 [Example 117, ((1S,5S,6S)-3-amino-5-(5-((Z)-2-(5-chloropyridin-2-yl)-2-fluorovinyl)-2-fluorophenyl)-5-methyl-2-thia-4-azabicyclo[4.1.0]hept-3-en-1-yl)((S)-2-(methoxymethyl)pyrrolidin-1-yl)methanone] | 0.0209 | 166
C[C@]1(c2cc(/C=C(\F)c3ccc(C#N)cn3)ccc2F)N=C(N)S[C@@]2(C(=O)N3CCCC(C#N)C3)C[C@H]21 (stereo partly drawn) [Example 143, 6-((Z)-2-(3-((1S,5S,6S)-3-amino-1-(3-cyanopiperidine-1-carbonyl)-5-methyl-2-thia-4-azabicyclo[4.1.0]hept-3-en-5-yl)-4-fluorophenyl)-1-fluorovinyl)nicotinonitrile] | 0.0127 | 152
